Source: patent US20230293519A1, “INTEGRIN INHIBITORS AND USES THEREOF IN COMBINATION WITH OTHER AGENTS” (Pliant Therapeutics, Inc., priority 2021, published 2023)

What was measured:
lung Col1a1 expression = test: Precision cut lung slices from human IPF explants, 3 days; type: cell-based; settings: 3G9 ≥400 ng/mL, compound 5 179 nM, ALK5 inhibitor 1 µM
Source text: Explanted lung tissue was obtained from human IPF subjects and inflated with agarose as described in the preceding examples. Biopsy cores were obtained from the agarose-inflated lung tissue. The biopsy cores were subjected to precision slicing to obtain several hundred µm thick. Individual slices were distributed in a multiwell culture plate and cultured for 3 days under control (DMSO) and test compound conditions. The viability of the slices over the course of culturing was confirmed by WST-1 assay of mitochondrial activity.

[1] = tested on: fibrosis-related gene expression in explanted human lung tissue from patients with idiopathic pulmonary fibrosis; test: nCounter Fibrosis Panel gene expression in precision cut lung slices from IPF explants; type: cell-based; settings: IPF PCLS, 7 days, vs DMSO
Source text: Fibrosis-related gene expression in explanted human lung tissue from patients with idiopathic pulmonary fibrosis was examined in order to determine what impact combining Compound 5 treatment with standard-of-care drugs nintedanib or pirfenidone, has on the expression of such genes.
Samples used for this analysis are a subset (n = 4 of 7) of the lungs previously reported on in Decaris et al., Respir Res (2021) 22:265 (FIGS. 6 A and B). Briefly, tissue samples from patients with IPF were acquired at the time of lung transplantation. Precision cut lung slices were generated from the explants and cultured for 7 days in the presence of inhibitors (Compound 5, nintedanib, pirfenidone) at clinically relevant concentrations or vehicle (DMSO). Treated slices were lysed in mRNA-compatible buffer for gene expression analysis. For this study, the lysate from n = 6 slices per treatment per lung were pooled for analysis using the nCounter Fibrosis Panel (Nanostring) on the nCounter Max analyzer (Nanostring). This commercially available panel of 770 genes includes genes related to initial tissue damage response, chronic inflammation, proliferation of pro-fibrotic cells, and tissue modification leading to fibrotic disease. Technical quality control and normalization of raw Nanostring mRNA count data was performed using an R framework developed by Bhattacharya et al. (Bhattacharya A. et al., Brief Bioinform. 2021 May 20;22(3):bbaa163). The R packages limma (see URL www.bioconductor.org/packages/release/bioc/html/limma.html) and voom (Law, C.W. et al., Genome Biol. 2014 Feb 3;15(2):R29) were used to detect differentially expressed genes. Benjamini-Hochberg False Discovery Rate (FDR = 5%) was used to adjust p-values for multiple comparisons.

[2] = tested on: bleomycin-treated mice (C57BL/6); test: Murine bleomycin model: collagen deposition; type: in vivo, mouse
Protocol: Mice (C57BL/6) were divided into healthy (n=15), vehicle-treated (n=15), and test article-treated (n=15 per dose) groups. Mice in the vehicle and test article-treated groups were administered 3 U/kg of bleomycin (Teva Pharmaceuticals; North Wales, PA) via oropharyngeal aspiration while under anesthesia on day 0. Healthy animals were administered water in a similar fashion. Starting on day 7, mice in the control group were administered PBS vehicle, 130 uL, by oral gavage, BID for 14 days. Also starting on day 7, mice in the test group were administered compound 5 in PBS by oral gavage, BID for 14 days, at relative dosages of 1x, 2.5x and 5x. […] From day 14 through day 21, 9 of the 15 mice were administered ^2H2O for labeling. All mice were sacrificed on day 21 and tissues were collected. Samples were prepared for analysis either directly from lung tissue, or by bronchoalveolar lavage, which washes out the bronchiolar and alveolar space with saline to produce a bronchoalveolar lavage fluid (BALF) in which 80-90% of cells are alveolar macrophages.
FIG. 4C is a graph showing that compared to the healthy mice, lung tissue in the vehicle-treated mice experienced a substantial increase in SMAD3 phosphorylation, which is a measure of TGF-β signaling-related kinase activity. […] FIG. 4D is a graph showing that compared to the healthy mice, lung tissue in the vehicle-treated mice experienced a substantial accumulation of new collagen as evidenced by the percentage of lung collagen containing ^2H-labeled hydroxyproline.
FIGS. 4F, 4G, and 4H show high resolution second harmonic generation images of fibrillar collagen (collagen type I and III) taken from formalin-fixed paraffin embedded lung tissue sections from a healthy mouse lung (4F), a vehicle-treated mouse lung (4G) and a test-article treated mouse lung (4H; 500 mg/kg BID). Color scale is indicative of collagen fiber density (red = most dense; blue = least dense).
FIG. 4I is a graph showing the percent total collagen area in the second harmonic generation mouse lung images. […]

[3] = tested on: normal human bronchial epithelial cells; test: LAP adhesion assay (xCELLigence cell index), bronchial epithelial cells; type: cell-based; settings: normal bronchial epithelial cells (express αvβ6)
Source text: Two latency associated peptide (LAP) adhesion binding assays were devised using primary human lung cells, including normal (healthy) human bronchial epithelial cells and human lung fibroblasts (healthy and IPF).
Human bronchial epithelial cells are known to express αvβ6 integrin in culture.

## COCCN(CCCCc1ccc2c(n1)NCCC2)CC[C@H](Nc1ncnc2ccccc12)C(=O)O [Compound 5, (S)-4-((2-methoxyethyl)(4-(5,6,7,8-tetrahydro-1,8-naphthyridin-2-yl)butyl)amino)-2-(quinazolin-4-ylamino)butanoic acid]
Lung Col1a1 expression
  lung Col1a1 expression vs DMSO control: substantial, statistically significant
[1]
  % Reduction of APOC2 expression: -1.20%
  % Reduction of CDH2 expression: 23.87%
  % Reduction of COL1A1 expression: 38.78%
  % Reduction of COL4A2 expression: 17.74%
  % Reduction of COL5A3 expression: 30.59%
  % Reduction of FAP expression: 37.30%
  % Reduction of FCGR3A/B expression: 28.54%
  % Reduction of ITGAS expression: 26.20%
  % Reduction of ITGB3 expression: -2.48%
  % Reduction of LOX expression: 39.38%
  % Reduction of LOXL2 expression: 15.32%
  % Reduction of NID1 expression: 19.25%
  % Reduction of PDGFRB expression: 37.29%
  % Reduction of POSTN expression: 48.61%
  % Reduction of SERPINE1 expression: 35.77%
  % Reduction of SERPINH1 expression: 22.68%
  % Reduction of SPP1 expression: -15.73%
  % Reduction of TGFB1 expression: 1.68%
  % Reduction of THBS2 expression: 31.47%
  logFC of ALDH7A1 expression: 0.57
  logFC of APOA2 expression: 0.6135
  logFC of CCL13 expression: 0.9445
  logFC of CD19 expression: 0.5301
  logFC of CIITA expression: 0.5895
  logFC of COL1A2 expression: -0.8062
  logFC of COL3A1 expression: -0.7449
  logFC of COL5A1 expression: -0.9282
  logFC of COL6A3 expression: -0.8313
  logFC of COL10A1 expression: -2.782
  logFC of CXCL2 expression: 0.7069
  logFC of CXCR4 expression: -0.7822
  logFC of FAP expression: -0.6735
  logFC of FN1 expression: -0.662
  logFC of FZD5 expression: 0.4466
  logFC of GPC4 expression: 0.486
  logFC of GREM1 expression: -0.8269
  logFC of IFI6 expression: 0.9391
  logFC of IFI35 expression: 0.4412
  logFC of LOX expression: -0.722
  logFC of LOXL1 expression: -0.6279
  logFC of LTA expression: 0.4994
  logFC of MARCO expression: -0.9183
  logFC of MET expression: 0.6707
  logFC of MMP8 expression: -0.8754
  logFC of MMP11 expression: -0.6749
  logFC of NOS1 expression: 0.6684
  logFC of OAS1 expression: 0.6104
  logFC of PDGFRB expression: -0.6732
  logFC of PECAM1 expression: -0.8251
  logFC of PLPP4 expression: -0.6364
  logFC of POSTN expression: -0.9604
  logFC of PTGER4 expression: 0.439
  logFC of SERPINE1 expression: -0.6387
  logFC of SMAD3 expression: 0.4528
  logFC of TIMP1 expression: -0.6101
  logFC of TNF expression: 0.4803
  logFC of TTN expression: 0.5832
  logFC of WWC1 expression: 0.5885
  logFC of XAF1 expression: 0.4529
[2]; 1x and 5x dose PO BID 14 days
  accumulated new collagen (% of lung collagen containing 2H-labeled hydroxyproline): dose-dependent reduction
[2]; 1x, 2.5x, 5x dose
  percent total collagen area in second harmonic generation lung images: substantial, statistically significant dose-dependent reduction
[2]; 1x, 2.5x, 5x dose PO BID 14 days
  total pulmonary collagen (µg of hydroxyproline): reduction in total pulmonary collagen
[3]
  inhibition of cell adhesion to LAP: substantially inhibited
